Data taken from patent US12187721B2, “Protein tyrosine phosphatase inhibitors” (Array BioPharma Inc., priority 2018, dated 2025).
Like-named read-outs stand apart in the source and are kept apart here.

Molecular target: T1, full-length SHP2 (His6-tagged SHP2(2-527)) (Homo sapiens, UniProt Q06124)
T1 construct: His6-tagged SHP2(2-527); His6; made in house; host or cells: E. coli
Test: SHP2 Enzymatic Assay (fluorescence intensity kinetic assay, DiFMUP hydrolysis)
Type: biochemical
Procedure: A fluorescence intensity kinetic assay was configured for full-length SHP2 that monitors the amount of 6,8-difluoro-7-hydroxy-4-methylcoumarin (“DiFMU”) formed upon hydrolysis of 6,8-difluoro-4-methylumbelliferyl phosphate (“DiFMUP”) by SHP2. Assay mixtures consisted of 25 mM K^+HEPES, pH 7.4, 0.01% Triton X-100, 1 mM DTT, 50 mM KCl, 100 μg/mL bovine γ-globulin, 50 μM DiFMUP, 1 μM SHP2 activating peptide (LN(pY)IDLDLV(dPEG8)LST(pY)ASINFQK-amide), 1 nM full-length SHP2 (His6-tagged SHP2(2-527), recombinantly expressed in E. coli and purified in-house) and 2% dimethylsulfoxide (“DMSO”) (from compound). […] The assay was run in 384-well, polystyrene, low-volume, non-treated, black microtiter plates (Costar 4511) in a final volume of 20 μL. Low control wells lacked enzyme. The assays were initiated by the addition of a mixture of SHP2 and the activating peptide, and following a 15 second mix on an orbital shaker, were read in kinetic mode for 15 minutes (30 seconds/cycle) at ambient temperature on a PerkinElmer EnVision microplate reader (λEx=355 nm, λEm=460 nm). Initial velocities (slopes of the tangents at t=0) were estimated from exponential fits to the slightly nonlinear progress curves and then were converted to percent of control (“POC”) using the following equation:
[formula] • Where: Xmax Average Uninhibited Controls • Xmin Average Background A 4-parameter logistic model was the fit to the POC data for each compound. From that fit, the IC50 was estimated and is defined as the concentration of compound at which the curve crosses 50 POC.
The reported IC50 in Table 1 may be from a single assay or the mean of multiple assays.

T1 sequence (Q06124 2-527): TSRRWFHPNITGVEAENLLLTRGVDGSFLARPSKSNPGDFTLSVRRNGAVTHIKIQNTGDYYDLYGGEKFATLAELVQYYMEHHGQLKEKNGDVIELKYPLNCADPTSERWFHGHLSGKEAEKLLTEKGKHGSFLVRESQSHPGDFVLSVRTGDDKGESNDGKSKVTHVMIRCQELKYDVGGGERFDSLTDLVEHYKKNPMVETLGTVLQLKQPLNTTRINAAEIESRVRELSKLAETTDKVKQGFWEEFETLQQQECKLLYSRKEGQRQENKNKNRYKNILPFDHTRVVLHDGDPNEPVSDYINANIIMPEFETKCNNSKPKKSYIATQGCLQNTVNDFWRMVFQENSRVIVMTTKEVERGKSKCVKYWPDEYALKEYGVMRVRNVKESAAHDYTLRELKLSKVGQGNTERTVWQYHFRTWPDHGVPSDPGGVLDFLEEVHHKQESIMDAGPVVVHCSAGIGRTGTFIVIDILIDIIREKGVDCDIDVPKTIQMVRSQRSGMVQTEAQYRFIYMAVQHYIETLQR

| Structure (SMILES) | IC50 [µM] | IC50 (full-length SHP2 with 1 μM activating peptide, 50 μM DiFMUP, single assay or mean of multiple assays, read-out: Biological Example 1 IC50) [µM] |
| --- | --- | --- |
| N#Cc1ccc2ncc(Sc3ccc4nc(N5CCC6(CC5)Cc5ccccc5[C@H]6N)cnc4n3)n2c1 [Example 172, (S)-3-((2-(1-amino-1,3-dihydrospiro[indene-2,4′-piperidin]-1′-yl)pyrido[2,3-b]pyrazin-6-yl)thio)imidazo[1,2-a]pyridine-6-carbonitrile] | 0.112 | – |
| COc1ccc2c(c1)[C@@H](N)C1(CCN(c3cnc4nc(Sc5ccnc(N)c5Cl)ccc4n3)CC1)C2 [Example 219, (S)-1′-(6-((2-amino-3-chloropyridin-4-yl)thio)pyrido[2,3-b]pyrazin-2-yl)-6-methoxy-1,3-dihydrospiro[indene-2,4′-piperidin]-1-amine] | 4.19 | – |
| Nc1nccc(Sc2ccc3nc(N4CCC(N)(C(F)(F)F)CC4)cnc3n2)c1Cl [Example 104, 4-((2-(4-amino-4-(trifluoromethyl)piperidin-1-yl)pyrido[2,3-b]pyrazin-6-yl)thio)-3-chloropyridin-2-amine] | 3.35 | – |
| CNC1C[C@@H]2CC[C@@H](C1)N2c1cnc2nc(Sc3ccnc(N)c3Cl)ccc2n1 (stereo partly drawn) [Example 93, (1S,3s,5S)-8-(6-((2-amino-3-chloropyridin-4-yl)thio)pyrido[2,3-b]pyrazin-2-yl)-N-methyl-8-azabicyclo[3.2.1]octan-3-amine] | 0.049 | – |
| CC(=O)N1CCN(c2nccc(Sc3ccc4nc(N5CCC6(CC5)CO[C@@H](C)[C@H]6N)cnc4n3)c2Cl)CC1 [Example 80, 1-(4-(4-((2-((3S,4S)-4-amino-3-methyl-2-oxa-8-azaspiro[4.5]decan-8-yl)pyrido[2,3-b]pyrazin-6-yl)thio)-3-chloropyridin-2-yl)piperazin-1-yl)ethan-1-one] | 0.743 | – |
| CC(C)(N)C1CCN(c2cnc3nc(Sc4ccnc(N)c4Cl)ccc3n2)CC1 [Example 60, 4-((2-(4-(2-aminopropan-2-yl)piperidin-1-yl)pyrido[2,3-b]pyrazin-6-yl)thio)-3-chloropyridin-2-amine] | 0.245 | – |
| Cc1c[nH]c2nccc(Sc3ccc4nc(N5CCC6(CC5)CO[C@@H](C)[C@H]6N)cnc4n3)c12 [Example 139, (3S,4S)-3-methyl-8-(6-((3-methyl-1H-pyrrolo[2,3-b]pyridin-4-yl)thio)pyrido[2,3-b]pyrazin-2-yl)-2-oxa-8-azaspiro[4.5]decan-4-amine] | 0.093 | – |
| CC1(N)CCN(c2cnc3nc(-c4cccc5ccncc45)ccc3n2)CC1 [Example 50, 1-(6-(isoquinolin-8-yl)pyrido[2,3-b]pyrazin-2-yl)-4-methylpiperidin-4-amine] | 9 | – |
| C[C@@H]1OCC2(CCN(c3cnc4nc(Sc5ccnc(N6CC[C@H](CO)C6)c5Cl)ccc4n3)CC2)[C@@H]1N [Example 87, ((S)-1-(4-((2-((3S,4S)-4-amino-3-methyl-2-oxa-8-azaspiro[4.5]decan-8-yl)pyrido[2,3-b]pyrazin-6-yl)thio)-3-chloropyridin-2-yl)pyrrolidin-3-yl)methanol] | 0.126 | – |
| C[C@@H]1OCC2(CCN(c3cnc4nc(Sc5cccnc5C(F)(F)F)ccc4n3)CC2)[C@@H]1N [Example 221, (3S,4S)-3-methyl-8-(6-((2-(trifluoromethyl)pyridin-3-yl)thio)pyrido[2,3-b]pyrazin-2-yl)-2-oxa-8-azaspiro[4.5]decan-4-amine] | 0.183 | – |
| C[C@@H]1OCC2(CCN(c3cnc4nc(Sc5c(C(F)(F)F)cnc6[nH]ccc56)ccc4n3)CC2)[C@@H]1N [Example 193, (3S,4S)-3-methyl-8-(6-((5-(trifluoromethyl)-1H-pyrrolo[2,3-b]pyridin-4-yl)thio)pyrido[2,3-b]pyrazin-2-yl)-2-oxa-8-azaspiro[4.5]decan-4-amine] | 0.138 | – |
| Cc1cccc2c1CC1(CCN(c3cnc4nc(Sc5ccnc(N)c5Cl)ccc4n3)CC1)[C@@H]2N [Example 126, (S)-1′-(6-((2-amino-3-chloropyridin-4-yl)thio)pyrido[2,3-b]pyrazin-2-yl)-4-methyl-1,3-dihydrospiro[indene-2,4′-piperidin]-1-amine] | 0.03 | – |
| Nc1nccc(Sc2ccc3nc(N4C[C@@H]5C[C@H]4CN5)cnc3n2)c1Cl [Example 203, 4-((2-((1S,4S)-2,5-diazabicyclo[2.2.1]heptan-2-yl)pyrido[2,3-b]pyrazin-6-yl)thio)-3-chloropyridin-2-amine] | 0.142 | – |
| Nc1nccc(Sc2ccc3nc(N4CCC5(CC4)Cc4c(Cl)cccc4[C@H]5N)cnc3n2)c1Cl [Example 159, (S)-1′-(6-((2-amino-3-chloropyridin-4-yl)thio)pyrido[2,3-b]pyrazin-2-yl)-4-chloro-1,3-dihydrospiro[indene-2,4′-piperidin]-1-amine] | 0.05 | – |
| N[C@@H]1c2ccccc2CC12CCN(c1cnc3nc(Sc4ccnc(NCCO)c4Cl)ccc3n1)CC2 [Example 110, (S)-2-((4-((2-(1-amino-1,3-dihydrospiro[indene-2,4′-piperidin]-1′-yl)pyrido[2,3-b]pyrazin-6-yl)thio)-3-chloropyridin-2-yl)amino)ethan-1-ol] | 0.044 | – |
| C[C@@H]1OCC2(CCN(c3cnc4nc(Sc5ccncc5C(F)(F)F)ccc4n3)CC2)[C@@H]1N [Example 188, (3S,4S)-3-methyl-8-(6-((3-(trifluoromethyl)pyridin-4-yl)thio)pyrido[2,3-b]pyrazin-2-yl)-2-oxa-8-azaspiro[4.5]decan-4-amine] | 0.151 | – |
| CC1(N)CCN(c2cnc3nc(-c4cccc(Cl)c4F)ccc3n2)CC1 [Example 16, 1-(6-(3-chloro-2-fluorophenyl)pyrido[2,3-b]pyrazin-2-yl)-4-methylpiperidin-4-amine] | 0.29 | – |
| CC(C)(C)OC(=O)N[C@H]1[C@@H]2C[C@H]1CN(c1cnc3nc(Sc4ccnc(N)c4Cl)ccc3n1)C2 [Example 138] | 0.574 | – |
| CC1(N)CCN(c2cnc3nc(-c4ccnc(N5CCCC5)c4Cl)ccc3n2)CC1 [Example 19, 1-(6-(3-chloro-2-(pyrrolidin-1-yl)pyridin-4-yl)pyrido[2,3-b]pyrazin-2-yl)-4-methylpiperidin-4-amine] | 1.7 | – |
| NCC1CN(c2cnc3nc(-c4ccccc4)ccc3n2)CCO1 (centres unmarked) [Example 65, (4-(6-phenylpyrido[2,3-b]pyrazin-2-yl)morpholin-2-yl)methanamine] | 5.76 | – |
| Nc1nccc(Sc2ccc3nc(N4CCC5(CC4)Cc4cc(F)ccc4[C@H]5N)cnc3n2)c1Cl [Example 145, (S)-1′-(6-((2-amino-3-chloropyridin-4-yl)thio)pyrido[2,3-b]pyrazin-2-yl)-5-fluoro-1,3-dihydrospiro[indene-2,4′-piperidin]-1-amine] | – | 0.027 |
| CC1(N)CCCN(c2cnc3nc(Sc4ccnc(N)c4Cl)ccc3n2)CC1 (centres unmarked) [Example 73, 1-(6-((2-amino-3-chloropyridin-4-yl)thio)pyrido[2,3-b]pyrazin-2-yl)-4-methylazepan-4-amine] | 0.035 | – |
| C[C@@H]1OCC2(CCN(c3cnc4nc(Sc5ccnc6[nH]ncc56)ccc4n3)CC2)[C@@H]1N [Example 214, (3S,4S)-8-(6-((1H-pyrazolo[3,4-b]pyridin-4-yl)thio)pyrido[2,3-b]pyrazin-2-yl)-3-methyl-2-oxa-8-azaspiro[4.5]decan-4-amine] | 0.304 | – |
| Nc1nccc(Sc2ccc3nc(N4CCC5(CC4)Cc4ncccc4[C@@H]5N)cnc3n2)c1Cl [Example 167, (R)-1′-(6-((2-amino-3-chloropyridin-4-yl)thio)pyrido[2,3-b]pyrazin-2-yl)-5,7-dihydrospiro[cyclopenta[b]pyridine-6,4′-piperidin]-5-amine] | 0.05 | – |
| CC1(N)CCN(c2cnc3nc(Sc4cccnc4N)ccc3n2)CC1 [Example 95, 3-((2-(4-amino-4-methylpiperidin-1-yl)pyrido[2,3-b]pyrazin-6-yl)thio)pyridin-2-amine] | 4.72 | – |
| C[C@@H]1OCC2(CCN(c3cnc4nc(Sc5ccnc6[nH]cnc56)ccc4n3)CC2)[C@@H]1N [Example 131, (3S,4S)-8-(6-((3H-imidazo[4,5-b]pyridin-7-yl)thio)pyrido[2,3-b]pyrazin-2-yl)-3-methyl-2-oxa-8-azaspiro[4.5]decan-4-amine] | 0.419 | – |
| CCC1(N)CCN(c2cnc3nc(Sc4ccnc(N)c4Cl)ccc3n2)CC1 [Example 130, 4-((2-(4-amino-4-ethylpiperidin-1-yl)pyrido[2,3-b]pyrazin-6-yl)thio)-3-chloropyridin-2-amine] | 0.096 | – |
| COc1ccc(F)c(-c2ccc3nc(N4CCC(C)(N)CC4)cnc3n2)c1Cl [Example 26, 1-(6-(2-chloro-6-fluoro-3-methoxyphenyl)pyrido[2,3-b]pyrazin-2-yl)-4-methylpiperidin-4-amine] | 0.92 | – |
| Nc1nccc(Sc2ccc3nc(N4[C@@H]5CC[C@H]4[C@@H](N)C5)cnc3n2)c1Cl [Example 213, (1S,2S,4R)-7-(6-((2-amino-3-chloropyridin-4-yl)thio)pyrido[2,3-b]pyrazin-2-yl)-7-azabicyclo[2.2.1]heptan-2-amine] | 0.112 | – |
